Here are results for one molecule from publication PMC3632402 (Analytical biochemistry, 2012).

The target of assay [1] is T1, hsEH (Homo sapiens, UniProt P34913).
T1 sequence (P34913 1-555): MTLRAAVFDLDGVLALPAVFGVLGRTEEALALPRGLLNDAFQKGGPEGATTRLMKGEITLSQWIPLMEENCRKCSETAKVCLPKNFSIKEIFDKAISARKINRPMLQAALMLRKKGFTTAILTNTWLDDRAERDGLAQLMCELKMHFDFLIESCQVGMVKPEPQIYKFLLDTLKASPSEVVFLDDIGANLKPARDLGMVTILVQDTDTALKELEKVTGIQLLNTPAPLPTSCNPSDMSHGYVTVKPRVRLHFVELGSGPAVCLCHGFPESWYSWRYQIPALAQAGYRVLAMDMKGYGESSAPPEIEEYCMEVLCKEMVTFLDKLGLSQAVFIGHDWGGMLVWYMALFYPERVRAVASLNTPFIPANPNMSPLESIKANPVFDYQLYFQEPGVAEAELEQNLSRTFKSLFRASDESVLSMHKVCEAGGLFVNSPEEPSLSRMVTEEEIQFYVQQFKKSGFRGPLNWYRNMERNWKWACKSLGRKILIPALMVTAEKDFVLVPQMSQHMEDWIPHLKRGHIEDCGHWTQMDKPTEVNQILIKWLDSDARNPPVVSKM
Description: Fluorescence binding assay.

Assay [2] has as its target T2, murine sEH (Mus musculus, UniProt P34914).
T2 sequence (P34914 1-554): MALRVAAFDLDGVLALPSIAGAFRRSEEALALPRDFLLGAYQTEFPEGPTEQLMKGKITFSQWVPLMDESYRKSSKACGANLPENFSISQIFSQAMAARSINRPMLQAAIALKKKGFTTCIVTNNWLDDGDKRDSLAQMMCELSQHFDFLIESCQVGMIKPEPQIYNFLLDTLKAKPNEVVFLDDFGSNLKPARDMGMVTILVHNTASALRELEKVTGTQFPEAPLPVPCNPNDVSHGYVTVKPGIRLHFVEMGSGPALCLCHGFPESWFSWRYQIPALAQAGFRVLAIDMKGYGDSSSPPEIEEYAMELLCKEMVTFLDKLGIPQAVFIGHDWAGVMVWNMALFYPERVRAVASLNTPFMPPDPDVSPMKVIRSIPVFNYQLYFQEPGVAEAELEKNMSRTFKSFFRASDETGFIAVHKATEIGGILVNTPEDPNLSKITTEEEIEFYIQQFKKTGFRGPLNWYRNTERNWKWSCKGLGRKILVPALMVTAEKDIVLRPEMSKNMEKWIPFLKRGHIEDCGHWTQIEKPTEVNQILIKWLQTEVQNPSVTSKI
Description: Fluorescence binding assay of reporter ACPU on murine sEH.

The target in assay [3] is T3, rat sEH (Rattus norvegicus, UniProt P80299).
T3 sequence (P80299 1-554): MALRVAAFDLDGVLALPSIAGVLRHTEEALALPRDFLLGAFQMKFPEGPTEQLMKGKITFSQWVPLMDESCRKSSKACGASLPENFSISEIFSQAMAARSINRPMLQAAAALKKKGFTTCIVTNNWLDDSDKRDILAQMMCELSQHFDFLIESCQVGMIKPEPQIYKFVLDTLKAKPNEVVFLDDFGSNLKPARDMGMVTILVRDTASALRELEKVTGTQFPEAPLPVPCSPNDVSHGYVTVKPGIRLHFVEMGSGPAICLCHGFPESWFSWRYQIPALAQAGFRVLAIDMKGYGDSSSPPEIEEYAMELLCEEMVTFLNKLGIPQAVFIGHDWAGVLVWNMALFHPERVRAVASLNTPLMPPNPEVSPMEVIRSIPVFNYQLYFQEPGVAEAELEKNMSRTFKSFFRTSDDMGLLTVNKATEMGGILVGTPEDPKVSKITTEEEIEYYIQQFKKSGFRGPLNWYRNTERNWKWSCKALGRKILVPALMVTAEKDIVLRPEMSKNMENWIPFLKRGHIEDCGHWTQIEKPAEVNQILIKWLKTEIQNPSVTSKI
Description: Fluorescence binding assay of reporter ACPU on rat sEH.

As a reminder, the Kd is the free concentration of one partner at which half of the binding sites on the other are occupied at equilibrium, for simple one-to-one binding.

On to `O=C(NC1CCN(C(=O)Cc2cc(=O)oc3cc(O)ccc23)CC1)NC12CC3CC(CC(C3)C1)C2` [ACPU, 1-(adamantan-1-yl)-3-(1-(2-(7-hydroxy-2-oxo-2H-chromen-4-yl)acetyl)piperidin-4-yl)urea], for which the Kd in assay [1] turned out to be 1.04 ± 0.04 nM; in assay [2] it was 0.1 nM; in assay [3] it was 0.17 nM. For the same molecule, the “time needed to reach the equilibrium between ACPU and sEH” value in assay [1] (FRET signal at 450 nm) was 40 min.
